# Assays:
# [1] = system: full-thickness skin defect wound surfaces; assay: Effects of cyclic peptide Hst1 on wound repair in mice (Example 10): healing rate, HE/Masson histology, CD31/VEGF immunohistochemistry; format: in vivo, C57 BL/6 mice
# Description: This example adopted the propargylglycine-Hst1 cyclic peptide (Click-Histatin1) provided in Example 1, a cyclized Hst1 (Sortase A-cyclic histatin1) prepared by the Sortase A enzymatic method provided in Example 4, and a linear peptide Hst1 (Histatin1) to conduct animal experiments to observe the effect of the propargylglycine-Hst1 on the healing rates of the wound surfaces of mice. The concentration of the linear peptide Hst1 was 10 μM, the concentration of the propargylglycine-Hst1 cyclic peptide was 0.1 μM, and the concentration of the cyclized Hst1 prepared by the Sortase A enzymatic method was each 0.1 μM. 12 healthy male special pathogen-free grade C57 BL/6 mice (purchased from Guangdong Experimental Animal Center) of 6-8 weeks old and weighing 22-28 g. They were intraperitoneally injected with 5 ml/kg of 1% pentobarbital sodium for anesthesia. After the mice had no corneal reflex, the hair on their backs was carefully removed and disinfected with alcohol. […] full-thickness skin defect wound surfaces were prepared on the back of each mouse by using a circular skin punch. The 12 mice were divided into a Control (blank) group with 3 mice, a 10 μM linear peptide Hst1 (Histatin1) group with 3 mice, a 0.1 μM propynylglycine-Hst1 cyclic peptide (Click-Histatin1) group with 3 mice, and a 0.1 μM cyclized Hst1 prepared by a Sortase A enzymatic method (Sortase A-cyclic histatin1) group with 3 mice, according to a random number table method. Each wound surface was added with 0.5 ml of four drugs respectively, and administration was conducted every day until the wound surfaces of the experimental groups healed. Photographs were taken on days 0, 3, 5, 7, and 10 after surgery, and wound tissues were sampled on day 10 for subsequent pathological staining. On days 0, 3, 5, 7, and 10 after injury, the general condition of wound healing of the mice was observed and photographed with a digital camera (see FIG. 4), and the wound healing rate was calculated (see FIG. 5). Wound healing rate=(wound area immediately after injury−unhealed wound area at each time point)[…]wound area immediately after injury×100%. The wound specimens were fixed in 4% paraformaldehyde for 48 hours, rinsed with tap water for 10 minutes, dehydrated with graded ethanol, permeabilized with xylene, and embedded in paraffin to prepare 4 μm thick sections. Some sections were taken for HE staining and Masson staining, and observed for the thickness of the granulation tissue, the length of the dermal gap, and the newly grown collagen of the wound surface under an inverted fluorescence microscope at 40×, 100×, 200×, and 400× respectively (see FIGS. 6 and 7). 5 sections were taken from each mouse, and 5 fields of view were selected for each section. Data analysis was performed using the software Image-pro Plus. […] It was added with a rabbit anti-mouse CD31 primary antibody (with a dilution ratio of 1:300) and a mouse anti-VEGF (with a dilution ratio of 1:100), incubated overnight at 4° C., and washed with PBS. […] It was subjected to DAB development, hematoxylin counterstaining. gradient ethanol dehydration, xylene permeabilization, and resin blocking. 5 sections were taken from each mouse, and 5 fields of view were selected for each section. The sections were observed under a 400× inverted fluorescence microscope, and analyzed for the number of CD31-positive blood vessels (see FIG. 8) and VEGF expression amounts (see FIG. 9, shown in brown) by using Image-pro Plus software. The measurement data were expressed by M±SD, and the data were analyzed by one-way analysis of variance (ANOVA) and an independent samples T-test with SPSS 20.0 software to detect whether the differences among the groups were statistically significant, and a Bonferroni test was used for pairwise comparison. *p<0.05. **p<0.01. ***p<0.001 meant the difference was statistically significant, and p>0.05 was not statistically significant.
# fibroblasts (NIH/3T3) = assay: Scratch experiment, Hst1-MAD cyclic peptides (Example 23); format: cell-based; settings: dose required to achieve the same pharmaceutical effect in the scratch experiment
# Excerpt: In this example, the propargylglycine-Hst1-MAD cyclic peptide, the homopropargylglycine-Hst1-MAD cyclic peptide, the dihomopropargylglycine-Hst1-MAD cyclic peptide and the linear Hst1 prepared in Examples 13, 14, and 15, and the Hst1-MAD head-to-tail cyclic peptide or N-terminal and C-terminal cyclized peptide prepared by the amide bond cyclization method provided by the literature of for example Sortase A as a tool for high-yield histatin cyclization, Jan G. M. Bolscher, The FASEB Journal. Research Communication, were adopted respectively, the reaction time was recorded, the yield of the reaction product was detected by HPLC, the proportion of side reactions in the reaction product was calculated, and activity comparison was performed. The activity comparison method was to calculate the dose required to achieve the same pharmaceutical effect through a scratch experiment. […] After 12 hours and 24 hours of culture, the scratched area of each group was calculated by using imageJ (Rawak Software, Inc. Germany) software, and the scratch area at 0 hour was an initial scratch area. The scratch healing rate was calculated in the following manner: W % (scratch healing rate)=(W0−Wt)/W0×100%, where W0=an initial scratch area, and Wt=a remaining scratch area; and the results were as shown in Table 14.
# [2] = day 10, immunohistochemistry, 0.1 μM Click-Histatin1, 10 μM Histatin1
substance,measurement,setting,value
"Linear Hst1: linear peptide Hst1 (Histatin1), amino acid sequence SEQ ID NO.1",healing rate of the wound surface,"[1]; day 7, 10 μM Histatin1 vs 0.1 μM Click-Histatin1",no significant difference
same,dermal gap length at both ends of the wound surface,"[1]; day 10, HE staining, 0.1 μM Click-Histatin1, 0.1 μM Sortase A-cyclic histatin1, 10 μM Histatin1",longest dermal gap length
same,expression amount of collagen at the wound surfaces,"[1]; day 10, Masson staining, 0.1 μM Click-Histatin1, 0.1 μM Sortase A-cyclic histatin1, 10 μM Histatin1",significantly higher than that of the Control group
same,VEGF expression amount,[1]; [2],higher than that in the Control group
same,number of CD31-positive blood vessels under each field of view,[1]; [2],significantly higher than that in the Control group
same,Dosage of agents required for scratch test,fibroblasts (NIH/3T3),10 µM
